{
  "source": "patent US20250025387A1",
  "about": "“COMPOSITION FOR THE TREATMENT OF THE SKIN OF DIABETES PATIENTS” (MIBELLE AG, priority 2021, published 2025)",
  "key": {"loricrin": {"system": "loricrin", "assay": "Loricrin expression stain of 3D epidermis (immunohistochemistry)", "format": "cell-based, human", "details": "1.1 mM apical, 0.3 mM CaCl2·2H2O basal, 9 days of differentiation", "method": "(§1) The effect of the Ca^2+ phospholipid complexes on the differentiation of 3D-reconstructed epidermis was investigated. To this end, keratinocyte progenitor cells were cultivated in low-calcium growth medium (TAK-GM, 0.03 mM calcium chloride dihydrate (CaCl2·2H2O)) and were then used to reconstruct a 3D epidermis. For this purpose, the medium was replaced by a 3D differentiation medium (TAK-3D) containing 1.1 mM CaCl2·2H2O and the cells were grown in the medium for a further day. The cultures were then contacted with the air in order to induce differentiation and formation of the skin barrier, and grown for a further 9 days with changing of the medium every second day in the following way: • Condition 1: 1.1 mM CaCl2·2H2O from the basal side (TAK-3D). This is the standard condition for efficient epidermis formation. • Condition 2: 0.3 mM CaCl2·2H2O from the basal side (low calcium concentration). The calcium concentration was reduced here in order to cause impaired formation of the epidermis and thus produce an impaired skin barrier. This is the minimum necessary calcium concentration that must be present on the basal side in order to ensure formation of the epidermis. • Condition 3: 0.3 mM CaCl2·2H2O from the basal side+1.1 mM CaCl2·2H2O from the apical side. Here, calcium was additionally added to the 3D epidermis apically in the form of calcium chloride dihydrate. […]"}, "[1]": {"system": "3D-reconstructed epidermis", "assay": "Rebuilding of the epidermis structure in an in vitro skin model, control CaCl2 (hematoxylin-eosin stain)", "format": "cell-based, human", "details": "1.1 mM apical, 0.3 mM CaCl2·2H2O basal, 9 days of differentiation; dihydrate", "method": "as §1"}, "involucrin": {"system": "involucrin", "assay": "Involucrin expression in skin explants after topical treatment in Franz diffusion cells", "format": "cell-based", "details": "gel containing 0.013% CaCl2·2H2O, topical 24 hours, 20 mg", "method": "The effect of a topical treatment with Ca^2+ phospholipid complex on the expression of the epidermis differentiation marker involucrin was investigated in skin explants. […] Thereafter, the skin explants were washed with 3 ml of water and frozen at −80° C. The tissues were fixed in formaldehyde and embedded in paraffin. Tissue sections of 5 μm were prepared and mounted on glass slides before deparaffination. The slides were stained with hematoxylin-eosin stain to analyze tissue structure. The protein expression of involucrin was determined by immunohistochemical staining and quantified by image analysis."}},
  "note": "“Also recorded” adds a separate entry of the source.",
  "data": [
    {"smiles": "O.O.[Ca+2].[Cl-].[Cl-]", "note": "[CaCl2·2H2O, calcium chloride dihydrate]", "values": [
      {"measurement": "expression of the epidermal differentiation marker loricrin", "setting": "loricrin", "value": "reduced loricrin production"},
      {"measurement": "formation of 3D epidermis (hematoxylin-eosin stain)", "setting": "[1]", "value": "impairment of epidermis formation; also recorded: additionally worsened the formation of a 3D epidermis"},
      {"measurement": "reduction of involucrin expression compared to the placebo-treated skin explant", "setting": "involucrin", "value": 91.1, "unit": "%"}
    ]}
  ]
}
